Data on one molecule can be found in publication PMC10465358 (Nature Microbiology, 2023).

The IC50 is the concentration that gives 50% inhibition. The low end stands for greater potency, the high end for weaker potency.

In assay [1] the target is T1, P. bivia PulA (Prevotella bivia, UniProt I4Z8K5).
T1 construct: gene PrebiDRAFT_0808
The assay is described as follows: BODIPY fluorescent starch amylase assay with purified enzyme. It is filed as biochemical. An excerpt: BODIPY fluorescent starch amylase assay with purified enzyme on P. bivia PulA | Acarbose inhibited G. vaginalis PulA, P. bivia PulA and P. bivia GH13 enzymes

Assay [2] addresses T2, G. vaginalis PulA (Gardnerella vaginalis, UniProt A0ACD7VVB6).
T2 construct: gene GAVG_1021; signal peptide removed, N-terminal His6 (pET28a, pETpullGV), E. coli ArcticExpress (DE3), 219 kDa, two alpha-amylase (GH13) domains (D233, D1317)
The assay is described as follows: fluorescent (BODIPY) starch hydrolysis. As to conditions: BODIPY starch substrate; 15 min preincubation; 37 °C; pH not stated; error is 95% confidence interval. It is filed as biochemical. An excerpt: fluorescent (BODIPY) starch hydrolysis on G. vaginalis PulA | Acarbose inhibited G. vaginalis PulA, P. bivia PulA and P. bivia GH13 enzymes

T1 sequence (I4Z8K5 23-637 limits assumed): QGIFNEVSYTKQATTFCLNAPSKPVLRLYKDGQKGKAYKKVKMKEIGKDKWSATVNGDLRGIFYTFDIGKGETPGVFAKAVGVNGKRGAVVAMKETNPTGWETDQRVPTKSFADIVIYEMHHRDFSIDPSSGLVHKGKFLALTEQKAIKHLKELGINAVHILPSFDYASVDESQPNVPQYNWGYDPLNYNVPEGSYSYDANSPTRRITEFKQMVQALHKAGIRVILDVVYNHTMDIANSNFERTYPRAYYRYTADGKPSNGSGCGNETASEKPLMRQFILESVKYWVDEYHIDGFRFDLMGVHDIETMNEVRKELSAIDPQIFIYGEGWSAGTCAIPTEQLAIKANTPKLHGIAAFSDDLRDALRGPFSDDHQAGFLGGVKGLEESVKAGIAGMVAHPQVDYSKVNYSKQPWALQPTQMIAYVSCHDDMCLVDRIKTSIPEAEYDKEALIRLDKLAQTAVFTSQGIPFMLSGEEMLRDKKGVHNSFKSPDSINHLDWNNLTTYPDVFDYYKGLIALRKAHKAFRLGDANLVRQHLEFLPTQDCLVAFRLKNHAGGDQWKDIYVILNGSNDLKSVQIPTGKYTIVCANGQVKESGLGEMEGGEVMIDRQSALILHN
T2 sequence (A0ACD7VVB6 34-2012): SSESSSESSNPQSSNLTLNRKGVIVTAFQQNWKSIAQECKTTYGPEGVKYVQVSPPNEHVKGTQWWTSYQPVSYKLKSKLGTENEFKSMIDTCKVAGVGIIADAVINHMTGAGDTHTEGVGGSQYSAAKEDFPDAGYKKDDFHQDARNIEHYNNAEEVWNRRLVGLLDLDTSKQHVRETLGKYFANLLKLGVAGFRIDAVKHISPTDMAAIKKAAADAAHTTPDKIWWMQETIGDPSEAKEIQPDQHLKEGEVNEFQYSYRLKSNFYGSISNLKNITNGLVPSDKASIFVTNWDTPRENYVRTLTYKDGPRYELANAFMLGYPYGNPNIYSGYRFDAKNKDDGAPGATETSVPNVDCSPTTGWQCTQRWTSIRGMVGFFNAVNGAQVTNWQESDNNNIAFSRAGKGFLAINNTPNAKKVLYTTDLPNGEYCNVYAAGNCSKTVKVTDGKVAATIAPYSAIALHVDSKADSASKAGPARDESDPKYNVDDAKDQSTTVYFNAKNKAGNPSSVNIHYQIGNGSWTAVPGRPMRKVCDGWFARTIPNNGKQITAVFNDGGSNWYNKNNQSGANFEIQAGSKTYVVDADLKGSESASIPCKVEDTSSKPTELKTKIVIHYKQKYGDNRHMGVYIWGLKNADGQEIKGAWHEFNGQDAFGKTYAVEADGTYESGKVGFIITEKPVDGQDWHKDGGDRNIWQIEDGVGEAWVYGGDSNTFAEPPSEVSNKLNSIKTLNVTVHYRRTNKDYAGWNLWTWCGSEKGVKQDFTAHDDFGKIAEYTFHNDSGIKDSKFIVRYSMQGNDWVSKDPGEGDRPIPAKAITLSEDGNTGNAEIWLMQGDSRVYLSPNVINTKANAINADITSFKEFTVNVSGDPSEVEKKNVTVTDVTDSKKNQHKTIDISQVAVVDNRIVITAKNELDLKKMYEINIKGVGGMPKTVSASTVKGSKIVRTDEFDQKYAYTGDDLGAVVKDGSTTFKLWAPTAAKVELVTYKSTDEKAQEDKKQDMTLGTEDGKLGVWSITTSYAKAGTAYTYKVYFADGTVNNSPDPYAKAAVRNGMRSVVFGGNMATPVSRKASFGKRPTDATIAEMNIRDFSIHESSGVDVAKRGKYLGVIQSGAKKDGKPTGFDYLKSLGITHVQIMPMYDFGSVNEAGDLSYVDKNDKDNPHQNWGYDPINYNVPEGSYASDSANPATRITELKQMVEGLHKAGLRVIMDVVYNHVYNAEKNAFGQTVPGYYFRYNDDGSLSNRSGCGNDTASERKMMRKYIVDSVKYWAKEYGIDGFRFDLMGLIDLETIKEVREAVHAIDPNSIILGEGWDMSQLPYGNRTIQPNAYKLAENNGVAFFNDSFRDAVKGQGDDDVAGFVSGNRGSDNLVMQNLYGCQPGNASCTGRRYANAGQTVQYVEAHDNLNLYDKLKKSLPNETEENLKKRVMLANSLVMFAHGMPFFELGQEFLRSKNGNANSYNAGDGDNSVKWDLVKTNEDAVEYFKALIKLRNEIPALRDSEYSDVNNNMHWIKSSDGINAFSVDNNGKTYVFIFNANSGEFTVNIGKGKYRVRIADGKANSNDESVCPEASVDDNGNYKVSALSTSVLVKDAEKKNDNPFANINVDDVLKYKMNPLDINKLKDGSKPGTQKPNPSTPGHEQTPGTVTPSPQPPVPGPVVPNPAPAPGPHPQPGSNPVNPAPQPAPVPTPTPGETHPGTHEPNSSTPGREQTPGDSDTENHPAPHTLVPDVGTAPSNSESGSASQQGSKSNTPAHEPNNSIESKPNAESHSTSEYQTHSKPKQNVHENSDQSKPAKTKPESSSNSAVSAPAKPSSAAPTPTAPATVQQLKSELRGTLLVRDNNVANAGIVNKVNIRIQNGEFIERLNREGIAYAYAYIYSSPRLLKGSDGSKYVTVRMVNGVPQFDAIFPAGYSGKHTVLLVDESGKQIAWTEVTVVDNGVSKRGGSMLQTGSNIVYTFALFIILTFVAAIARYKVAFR

For the molecule `C[C@H]1O[C@H](O[C@H]2[C@H](O)[C@@H](O)[C@@H](O[C@H]3[C@H](O)[C@@H](O)C(O)O[C@@H]3CO)O[C@@H]2CO)[C@H](O)[C@@H](O)[C@@H]1N[C@H]1C=C(CO)[C@@H](O)[C@H](O)[C@H]1O` (some centres unmarked) [acarbose], the IC50 in assay [1] is 420 ± 90 µM; in assay [2] it was 120 ± 30 µM.
